# Measurements: patent US10399985B2, “(Hetero)aryl imidazoles/pyrazoles for treatment of neurological disorders” (Hoffmann-La Roche Inc., priority 2014, dated 2019)
# pIC50: −log10 of the molar value.
# Target: human PDE10A (Homo sapiens (Human), UniProt Q9Y233)
# Experiment: human PDE10A full length Scintillation Proximity Assay (SPA)
# Assay type: biochemical
# Conditions: 50 nM cGMP and 50 nM [3H]-cGMP, 20 minutes at room temperature
# Method: The following test was carried out in order to determine the activity of the compounds of the present invention. PDE10 activity of the compounds of the present invention was determined using a Scintillation Proximity Assay (SPA)-based method similar to the one previously described (Fawcett, L. et al., ProcNatl Acad Sci USA (2000) 97(7):3702-3707).
# The human PDE10A full length assay was performed in 96-well micro titer plates. The reaction mixture of 50 μl contained 20 mM HEPES pH=7.5/10 mM MgCl2/0.05 mg/ml BSA (Sigma cat. # A-7906), 50 nM cGMP (Sigma, cat. # G6129) and 50 nM [3H]-cGMP (GE Healthcare, cat. # TRK392 S. A. 13.2 Ci/mmol), 3.75 ng/well PDE10A enzyme (Enzo Life Science, Lausen, Switzerland cat # SE-534) with or without a specific test compound. A range of concentrations of the potential inhibitor was used to generate data for calculating the concentration of inhibitor resulting in 50% of the effect (e.g. IC50, the concentration of the competitor inhibiting PDE10A activity by 50%). Non-specific activity was tested without the enzyme. The reaction was initiated by the addition of the substrate solution (cGMP and [3H]-cGMP) and allowed to progress for 20 minutes at room temperature. The reaction was terminated by adding 25 μl of YSi-SPA scintillation beads (GE Healthcare, cat. # RPNQ0150) in 18 mM zinc sulphate solution (stop reagent). After 1 h under shaking, the plate was centrifuged one minute at 170 g to allow beads to settle. Afterwards, radioactive counts were measured on a Perkin Elmer TopCount Scintillation plate reader.
# Sequence of human PDE10A (Q9Y233 other isoform, or with tags, fused parts or gaps): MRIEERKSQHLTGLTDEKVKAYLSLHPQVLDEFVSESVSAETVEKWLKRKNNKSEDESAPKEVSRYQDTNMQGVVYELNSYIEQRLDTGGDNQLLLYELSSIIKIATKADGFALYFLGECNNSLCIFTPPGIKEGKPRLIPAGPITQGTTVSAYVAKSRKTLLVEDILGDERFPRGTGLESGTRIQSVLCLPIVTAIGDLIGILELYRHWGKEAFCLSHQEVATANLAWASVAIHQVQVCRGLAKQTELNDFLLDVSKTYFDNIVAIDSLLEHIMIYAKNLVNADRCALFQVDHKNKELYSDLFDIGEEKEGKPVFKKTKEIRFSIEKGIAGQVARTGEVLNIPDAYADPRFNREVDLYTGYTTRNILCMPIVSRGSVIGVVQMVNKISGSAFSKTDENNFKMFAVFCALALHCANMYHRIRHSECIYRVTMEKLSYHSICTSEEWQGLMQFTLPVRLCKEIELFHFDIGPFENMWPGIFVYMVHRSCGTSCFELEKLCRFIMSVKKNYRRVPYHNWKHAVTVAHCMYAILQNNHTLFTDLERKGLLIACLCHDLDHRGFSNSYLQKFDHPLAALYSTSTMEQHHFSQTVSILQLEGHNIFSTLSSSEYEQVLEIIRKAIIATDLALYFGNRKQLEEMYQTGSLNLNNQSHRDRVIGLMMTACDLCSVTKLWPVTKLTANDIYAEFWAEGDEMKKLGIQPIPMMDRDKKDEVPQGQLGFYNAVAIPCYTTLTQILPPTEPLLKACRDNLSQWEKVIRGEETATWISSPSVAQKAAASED
row,Compound,pIC50
1,"Cc1nn2ccc(C#Cc3nc(-c4ccccc4)cn3C)nc2c1C [Example 4, 2,3-Dimethyl-5-((1-methyl-4-phenyl-1H-imidazol-2-yl)ethynyl)pyrazolo[1,5-a]pyrimidine]",8.82
2,"Cn1cc(-c2ccccc2)nc1COc1ccc2nc3c(n2n1)CCC3 [Example 44, 2-[(1-Methyl-4-phenyl-imidazol-2-yl)methoxy]-7,8-dihydro-6H-cyclopenta[1,2]imidazo[3,4-c]pyridazine]",7.33
3,"Cc1nc2ccc(CCc3nc(-c4cnccn4)cn3C)nn2c1C [Example 29, 2,3-Dimethyl-6-(2-(1-methyl-4-(pyrazin-2-yl)-1H-imidazol-2-yl)ethyl)imidazo[1,2-b]pyridazine]",7.48
4,"Cn1cc(-c2ccccc2)nc1COc1ccc2nc(C(F)(F)F)cn2n1 [Example 45, 6-((1-Methyl-4-phenyl-1H-imidazol-2-yl)methoxy)-2-(trifluoromethyl)imidazo[1,2-b]pyridazine]",6.48
5,"Cc1c(C(F)(F)F)nc2ccc(CCc3nc(-c4ccccc4)cn3C)nn12 [Example 17, 3-Methyl-6-(2-(1-methyl-4-phenyl-1H-imidazol-2-yl)ethyl)-2-(trifluoromethyl)imidazo[1,2-b]pyridazine]",7.69
6,"Cc1nc2ccc(CCc3nc(-c4ccccn4)cn3C)nn2c1C [Example 27, 2,3-Dimethyl-6-(2-(1-methyl-4-(pyridin-2-yl)-1H-imidazol-2-yl)ethyl)imidazo[1,2-b]pyridazine]",8.48
7,"Cc1nc2ccc(C#Cc3nc(-c4ccccc4)cn3C)nn2c1CO [Example 3, (2-Methyl-6-((1-methyl-4-phenyl-1H-imidazol-2-yl)ethynyl)imidazo[1,2-b]pyridazin-3-yl)methanol]",9.00
8,"Cc1cn2nc(OCc3nc(-c4ccccc4)cn3C)ccc2n1 [Example 38, 2-Methyl-6-((1-methyl-4-phenyl-1H-imidazol-2-yl)methoxy)imidazo[1,2-b]pyridazine]",6.88
9,"Cc1c(CO)nc2ccc(OCc3nc(-c4ccccc4)cn3C)nn12 [Example 42, (3-Methyl-6-((1-methyl-4-phenyl-1H-imidazol-2-yl)methoxy)imidazo[1,2-b]pyridazin-2-yl)methanol]",6.44
10,"Cn1cc(-c2ccccc2)nc1COc1ccc2nc(C3CC3)cn2n1 [Example 37, 2-Cyclopropyl-6-((1-methyl-4-phenyl-1H-imidazol-2-yl)methoxy)imidazo[1,2-b]pyridazine]",6.77
11,"Cc1c(C(N)=O)nc2ccc(OCc3nc(-c4ccccc4)cn3C)nn12 [Example 39, 3-Methyl-6-((1-methyl-4-phenyl-1H-imidazol-2-yl)methoxy)imidazo[1,2-b]pyridazine-2-carboxamide]",6.94
12,"Cc1c(C(F)F)nc2ccc(CCc3nc(-c4ccccc4)cn3C)nn12 [Example 19, 2-(Difluoromethyl)-3-methyl-6-(2-(1-methyl-4-phenyl-1H-imidazol-2-yl)ethyl)imidazo[1,2-b]pyridazine]",8.19
13,"Cc1nc2ccc(CCc3nc(-c4ncccn4)cn3C)nn2c1C [Example 23, 2,3-Dimethyl-6-(2-(1-methyl-4-(pyrimidin-2-yl)-1H-imidazol-2-yl)ethyl)imidazo[1,2-b]pyridazine]",8.04
14,"Cn1cc(-c2ccccc2)nc1COc1ccc2nc(C3CC3)c(CO)n2n1 [Example 43, (2-Cyclopropyl-6-((1-methyl-4-phenyl-1H-imidazol-2-yl)methoxy)imidazo[1,2-b]pyridazin-3-yl)methanol]",6.78
15,"Cc1nc2ccc(CCc3nc(-c4cccnc4)cn3C)nn2c1C [Example 24, 2,3-Dimethyl-6-(2-(1-methyl-4-(pyridin-3-yl)-1H-imidazol-2-yl)ethyl)imidazo[1,2-b]pyridazine]",5.77
16,"CCc1nc2ccc(OCc3nc(-c4ccccc4)cn3C)nn2c1C [Example 35, 2-Ethyl-3-methyl-6-((1-methyl-4-phenyl-1H-imidazol-2-yl)methoxy)imidazo[1,2-b]pyridazine]",6.58
17,"Cc1nc2ccc(/C=C/c3nc(-c4ccccc4)nn3C)nn2c1C [Example 11, (E)-2,3-Dimethyl-6-(2-(1-methyl-3-phenyl-1H-1,2,4-triazol-5-yl)vinyl)imidazo[1,2-b]pyridazine]",8.89
18,"Cc1nc2ccc(CCc3nc(-c4ccccc4)cn3C)nn2c1CO [Example 15, (2-Methyl-6-(2-(1-methyl-4-phenyl-1H-imidazol-2-yl)ethyl)imidazo[1,2-b]pyridazin-3-yl)methanol]",8.47

row,Compound,pIC50
1,"Cc1c(C(F)F)nc2ccc(C#Cc3nc(-c4ccccc4)cn3C)nn12 [Example 7, 2-(Difluoromethyl)-3-methyl-6-((1-methyl-4-phenyl-1H-imidazol-2-yl)ethynyl)imidazo[1,2-b]pyridazine]",7.33
2,"Cc1cc(CCc2nc(-c3ccccn3)cn2C)nn2c(C)c(C(F)(F)F)nc12 [Example 30, 3,8-Dimethyl-6-(2-(1-methyl-4-(pyridin-2-yl)-1H-imidazol-2-yl)ethyl)-2-(trifluoromethyl)imidazo[1,2-b]pyridazine]",8.43
3,"COc1cc(OCc2nc(-c3ccccc3)cn2C)nn2c(C)c(C(F)(F)F)nc12 [Example 41, 8-Methoxy-3-methyl-6-((1-methyl-4-phenyl-1H-imidazol-2-yl)methoxy)-2-(trifluoromethyl)imidazo[1,2-b]pyridazine]",7.93
4,"Cc1c(C#N)nc2ccc(CCc3nc(-c4ccccc4)cn3C)nn12 [Example 22, 3-Methyl-6-[2-(1-methyl-4-phenyl-1H-imidazol-2-yl)-ethyl]-imidazo[1,2-b]pyridazine-2-carbonitrile]",8.27
5,"Cc1c(C#N)nc2ccc(/C=C/c3nc(-c4ccccc4)cn3C)nn12 [Example 12, (E)-3-methyl-6-(2-(1-methyl-4-phenyl-1H-imidazol-2-yl)vinyl)imidazo[1,2-b]pyridazine-2-carbonitrile]",7.86
6,"Cc1c(C#N)nc2ccc(OCc3nc(-c4ccccc4)cn3C)nn12 [Example 40, 3-Methyl-6-((1-methyl-4-phenyl-1H-imidazol-2-yl)methoxy)imidazo[1,2-b]pyridazine-2-carbonitrile]",7.63
7,"Cn1cc(-c2ccccc2)nc1C#Cc1ccc2nc(C(F)(F)F)cn2n1 [Example 8, 6-(1-Methyl-4-phenyl-1H-imidazol-2-ylethynyl)-2-trifluoromethyl-imidazo[1,2-b]pyridazine]",9.00
8,"Cc1nc2ccc(OCc3nc(-c4ccccc4)nn3C)nn2c1C [Example 33, 2,3-Dimethyl-6-((1-methyl-3-phenyl-1H-1,2,4-triazol-5-yl)methoxy)imidazo[1,2-b]pyridazine]",7.29
9,"Cc1nc2c(C)c(C)c(OCc3nc(-c4ccccc4)cn3C)nn2c1C [Example 34, 2,3,7,8-Tetramethyl-6-((1-methyl-4-phenyl-1H-imidazol-2-yl)methoxy)imidazo[1,2-b]pyridazine]",8.77
10,"Cc1nn2ccc(CCc3nc(-c4ccccc4)cn3C)nc2c1C [Example 16, 2,3-Dimethyl-5-(2-(1-methyl-4-phenyl-1H-imidazol-2-yl)ethyl)pyrazolo[1,5-a]pyrimidine]",8.62
11,"Cc1nn2ccc(OCc3nc(-c4ccccc4)cn3C)nc2c1C [Example 46, 2,3-Dimethyl-5-((1-methyl-4-phenyl-1H-imidazol-2-yl)methoxy)pyrazolo[1,5-a]pyrimidine]",8.47
12,"Cc1c(C(F)(F)F)nc2ccc(OCc3nc(-c4ccccc4)cn3C)nn12 [Example 36, 3-Methyl-6-((1-methyl-4-phenyl-1H-imidazol-2-yl)methoxy)-2-(trifluoromethyl)imidazo[1,2-b]pyridazine]",7.46
13,"Cc1nc2ccc(CCc3nc(-c4cncnc4)cn3C)nn2c1C [Example 26, 2,3-Dimethyl-6-(2-(1-methyl-4-(pyrimidin-5-yl)-1H-imidazol-2-yl)ethyl)imidazo[1,2-b]pyridazine]",7.01
14,"Cc1nc2c(C)c(C)c(CCc3nc(-c4ccccc4)cn3C)nn2c1C [Example 14, 2,3,7,8-Tetramethyl-6-(2-(1-methyl-4-phenyl-1H-imidazol-2-yl)ethyl)imidazo[1,2-b]pyridazine]",7.97
15,"Cc1nc2ccc(OCc3nc(-c4ccccc4)cn3C)nn2c1C [Example 32, 2,3-Dimethyl-6-((1-methyl-4-phenyl-1H-imidazol-2-yl)methoxy)imidazo[1,2-b]pyridazine]",8.14
16,"Cc1c(C2CC2)nc2ccc(C#Cc3nc(-c4ccccc4)cn3C)nn12 [Example 10, 2-Cyclopropyl-3-methyl-6-((1-methyl-4-phenyl-1H-imidazol-2-yl)ethynyl)imidazo[1,2-b]pyridazine]",7.92
17,"Cc1nc2ccc(CCc3nc(-c4ccccc4)nn3C)nn2c1C [Example 21, 2,3-Dimethyl-6-(2-(1-methyl-3-phenyl-1H-1,2,4-triazol-5-yl)ethyl)imidazo[1,2-b]pyridazine]",7.56
18,"Cn1cc(-c2ccccc2)nc1C#Cc1ccc2nc(C3CC3)c(CO)n2n1 [Example 6, (2-Cyclopropyl-6-((1-methyl-4-phenyl-1H-imidazol-2-yl)ethynyl)imidazo[1,2-b]pyridazin-3-yl)methanol]",8.72
